{"source": "patent US20260102407A1", "about": "“TREATMENT METHODS” (priority 2020, published 2026)", "key": {"genes induced by IL-1β": {"tested_on": "genes induced by IL-1β", "experiment": "RNA-seq of IL-1β-treated HMEC-1", "type": "cell-based, human", "conditions": "30 μM, 20 ng/ml IL-1β 4 h", "procedure": "RNA-seq. HMEC-1 were seeded into nine 100 mm petri dishes with complete MCDB131 medium containing 10% FBS. At 70-80% confluency, cells were growth-arrested with serum-free MCDB131 medium with no hydrocortisone or EGF for 44 h. Cells were pre-treated with 30 μM BT2 in the same medium for 4 h then stimulated with 20 ng/mL IL-1β for a further 4 h. Total RNA was extracted using RNeasy Mini Kit (Qiagen, Amtsgericht Dusseldorf) with modification. Briefly, cells were washed twice with pre-cooled 1×PBS and TRIzol (Thermo Fisher Sci, Waltham, MA) was added to lyze the cells. Chloroform was added to the mixture prior to centrifugation at 13000 rpm for 15 min at 4° C. Upper aqueous layer containing total RNA was transferred to fresh microtubes and isopropanol was added and loaded into RNeasy column. Columns were washed with Buffers RW1 and RPE. Total RNA was eluted from the column using RNAse-free water. Samples were submitted to The Ramaciotti Centre for Genomics (UNSW, Australia) for TruSeq Stranded mRNA-seq preparation and sequencing by One NextSeq 500 1×75 bp High Output flowcell with data output up to 400M reads. Quality control of samples was set at >80% higher than Q30 at 1×75 bp.\nRNA-seq reads were first assessed for quality using the tool FastQC (v0.11.8) (On the World-Wide-Web at: bioinformatics.babraham.ac.uk/projects/fastqc/). The tool Salmon was used for quantifying transcript abundance from RNA-seq reads (Patro, R., et al., Nat Methods 14, 417-419 (2017)). The R package DESeq2 (Love, M. I., et al., Genome Biol 15, 550 (2014)) that incorporates a method for differential analysis of count data was then used to identify differentially expressed genes across specific comparisons. The heatmap.2 function from the R package gplots v3.0.1.1 was used to generate heatmaps using counts per million (cpm) values for sets of genes of interest. The database for annotation, visualization and integrated discovery (DAVID) (Jiao, X., et al., Bioinformatics 28, 1805-1806 (2012)), a web-based online bioinformatics resource was used to identify the gene ontologies such as biological processes (BP) found to be enriched for lists of differentially expressed genes for specific comparisons."}, "Balb/c mice": {"tested_on": "Balb/c mice", "experiment": "Toxicology, histopathology after intraperitoneal, intraarticular or gavage administration", "conditions": "for Eye (left and right), severity grade / Heart, severity grade / Kidney (left and right): inflammation, renal pelvis, severity grade / Liver: inflammation, peritoneal, severity grade / Liver: mineralisation, subcapsular, severity grade / Lung: osseous metaplasia, severity grade / Spleen, severity grade / Kidney (left and right): inflammation, interstitial, severity grade / Liver: inflammation, parenchymal, severity grade: Mouse 1-5"}, "HMEC-1": {"tested_on": "HMEC-1", "experiment": "Endothelial proliferation assay using the Countess system with Trypan Blue exclusion", "type": "cell-based, human", "conditions": "5% FBS, 0.1-0.6 μM, 24 h", "procedure": "Endothelial proliferation assay using the Countess system. HMEC-1 proliferation was assessed using a Countess II Automated Cell Counter (ThermoFisher Scientific). Briefly, HMEC-1 (3×10^5 cells/well) were seeded in a 12-well plate. Cells were serum-deprived for 24 h in MCDB131 medium which contained 10 ng/ml EGF and 1 μg/ml hydrocortisone then treated with compound (0.1-0.6 μM) in medium containing 5% FBS, 10 ng/ml EGF and 1 μg/ml hydrocortisone. The cells were trypsinized after 24 h, resuspended in complete medium, a 10 μl aliquot was combined with an equal volume of […], and total cell numbers and Trypan Blue-excluding cells as a proportion of total was determined using the Countess."}, "[1]": {"conditions": "Gavage BT2 3 mg/kg (Days 0-4), 3 mg/kg"}, "[2]": {"conditions": "IA BT2 3 mg/kg (Day 0), 3 mg/kg"}, "[3]": {"conditions": "IP BT2 3 mg/kg (Days 0 and 5), 3 mg/kg"}, "[4]": {"conditions": "IP BT2 30 mg/kg (Days 0 and 5), 30 mg/kg"}}, "note": "“And” between values parts separate entries of the source, which are not always exact repeats. Equal entries are not always repeated."}
{"smiles": "CCOC(=O)Nc1ccc2c(c1)C(=O)N(CC)c1ccccc1O2", "note": "[BT2, (10-ethyl-11-oxo-10,11-dihydro-dibenzo[b,f][1,4]oxazepin-2-yl)-carbamic acid ethyl ester]", "values": [{"measurement": "IL-1β-inducible FosB and VCAM-1 expression (RNA-seq)", "setting": "genes induced by IL-1β", "value": "suppress IL-1β-inducible FosB and VCAM-1 expression"}, {"measurement": "expression of other regulatory genes including ICAM-1, CXCL2, KLF5, Egr-1 and Fos (RNA-seq)", "setting": "genes induced by IL-1β", "value": "inhibited a range of other regulatory genes"}, {"measurement": "number of the 325 IL-1β-induced genes (log FC≥2) inhibited (log FC≥2)", "setting": "genes induced by IL-1β", "value": 89}, {"measurement": "proportion of the 325 IL-1β-induced genes inhibited", "setting": "genes induced by IL-1β", "value": 27.5, "unit": "%"}, {"measurement": "histopathological evidence of toxicity", "setting": "Balb/c mice; Balb/c mice, 3 or 30 mg/kg, intraperitoneal, intraarticular or oral gavage", "value": "no histopathological evidence of toxic damage"}, {"measurement": "treated mice whose kidneys contained infrequent inflammatory foci", "setting": "Balb/c mice; Balb/c mice, all BT2 groups, control one of 5", "value": "4 of 30"}, {"measurement": "Eye (left and right), severity grade", "setting": "Balb/c mice; Gavage BT2 3 mg/kg (Days 0-4)", "value": 0}, {"measurement": "Heart, severity grade", "setting": "Balb/c mice; Gavage BT2 3 mg/kg (Days 0-4)", "value": 0}, {"measurement": "Kidney (left and right): inflammation, renal pelvis, severity grade", "setting": "Balb/c mice; Gavage BT2 3 mg/kg (Days 0-4)", "value": 0}, {"measurement": "Liver: inflammation, peritoneal, severity grade", "setting": "Balb/c mice; Gavage BT2 3 mg/kg (Days 0-4)", "value": 0}, {"measurement": "Liver: mineralisation, subcapsular, severity grade", "setting": "Balb/c mice; Gavage BT2 3 mg/kg (Days 0-4)", "value": 0}, {"measurement": "Lung: osseous metaplasia, severity grade", "setting": "Balb/c mice; Gavage BT2 3 mg/kg (Days 0-4)", "value": 0}, {"measurement": "Spleen, severity grade", "setting": "Balb/c mice; Gavage BT2 3 mg/kg (Days 0-4)", "value": 0}, {"measurement": "Kidney (left and right): inflammation, interstitial, severity grade", "setting": "Balb/c mice; [1]", "value": "0 and 1"}, {"measurement": "Liver: inflammation, parenchymal, severity grade", "setting": "Balb/c mice; [1]", "value": "0 and 1"}, {"measurement": "Eye (left and right), severity grade", "setting": "Balb/c mice; Gavage BT2 30 mg/kg (Days 0-4)", "value": 0}, {"measurement": "Heart, severity grade", "setting": "Balb/c mice; Gavage BT2 30 mg/kg (Days 0-4)", "value": 0}, {"measurement": "Kidney (left and right): inflammation, interstitial, severity grade", "setting": "Balb/c mice; Gavage BT2 30 mg/kg (Days 0-4)", "value": 0}, {"measurement": "Kidney (left and right): inflammation, renal pelvis, severity grade", "setting": "Balb/c mice; Gavage BT2 30 mg/kg (Days 0-4)", "value": 0}, {"measurement": "Liver: inflammation, peritoneal, severity grade", "setting": "Balb/c mice; Gavage BT2 30 mg/kg (Days 0-4)", "value": 0}, {"measurement": "Liver: mineralisation, subcapsular, severity grade", "setting": "Balb/c mice; Gavage BT2 30 mg/kg (Days 0-4)", "value": 0}, {"measurement": "Lung: osseous metaplasia, severity grade", "setting": "Balb/c mice; Gavage BT2 30 mg/kg (Days 0-4)", "value": 0}, {"measurement": "Spleen, severity grade", "setting": "Balb/c mice; Gavage BT2 30 mg/kg (Days 0-4)", "value": 0}, {"measurement": "Liver: inflammation, parenchymal, severity grade", "setting": "Balb/c mice; Gavage BT2 30 mg/kg (Days 0-4), 30 mg/kg", "value": "1 and 0"}, {"measurement": "Eye (left and right), severity grade", "setting": "Balb/c mice; IA BT2 3 mg/kg (Day 0)", "value": 0}, {"measurement": "Heart, severity grade", "setting": "Balb/c mice; IA BT2 3 mg/kg (Day 0)", "value": 0}, {"measurement": "Liver: inflammation, peritoneal, severity grade", "setting": "Balb/c mice; IA BT2 3 mg/kg (Day 0)", "value": 0}, {"measurement": "Liver: mineralisation, subcapsular, severity grade", "setting": "Balb/c mice; IA BT2 3 mg/kg (Day 0)", "value": 0}, {"measurement": "Lung: osseous metaplasia, severity grade", "setting": "Balb/c mice; IA BT2 3 mg/kg (Day 0)", "value": 0}, {"measurement": "Spleen, severity grade", "setting": "Balb/c mice; IA BT2 3 mg/kg (Day 0)", "value": 0}, {"measurement": "Kidney (left and right): inflammation, interstitial, severity grade", "setting": "Balb/c mice; [2]", "value": "0 and 1"}, {"measurement": "Kidney (left and right): inflammation, renal pelvis, severity grade", "setting": "Balb/c mice; [2]", "value": "2 and 0"}, {"measurement": "Liver: inflammation, parenchymal, severity grade", "setting": "Balb/c mice; [2]", "value": "1 and 0"}, {"measurement": "Eye (left and right), severity grade", "setting": "Balb/c mice; IA BT2 30 mg/kg (Day 0)", "value": 0}, {"measurement": "Heart, severity grade", "setting": "Balb/c mice; IA BT2 30 mg/kg (Day 0)", "value": 0}, {"measurement": "Kidney (left and right): inflammation, interstitial, severity grade", "setting": "Balb/c mice; IA BT2 30 mg/kg (Day 0)", "value": 0}, {"measurement": "Kidney (left and right): inflammation, renal pelvis, severity grade", "setting": "Balb/c mice; IA BT2 30 mg/kg (Day 0)", "value": 0}, {"measurement": "Liver: inflammation, parenchymal, severity grade", "setting": "Balb/c mice; IA BT2 30 mg/kg (Day 0)", "value": 1}, {"measurement": "Liver: inflammation, peritoneal, severity grade", "setting": "Balb/c mice; IA BT2 30 mg/kg (Day 0)", "value": 0}, {"measurement": "Liver: mineralisation, subcapsular, severity grade", "setting": "Balb/c mice; IA BT2 30 mg/kg (Day 0)", "value": 0}, {"measurement": "Lung: osseous metaplasia, severity grade", "setting": "Balb/c mice; IA BT2 30 mg/kg (Day 0)", "value": 0}, {"measurement": "Spleen, severity grade", "setting": "Balb/c mice; IA BT2 30 mg/kg (Day 0)", "value": 0}, {"measurement": "Eye (left and right), severity grade", "setting": "Balb/c mice; IP BT2 3 mg/kg (Days 0 and 5)", "value": 0}, {"measurement": "Heart, severity grade", "setting": "Balb/c mice; IP BT2 3 mg/kg (Days 0 and 5)", "value": 0}, {"measurement": "Kidney (left and right): inflammation, interstitial, severity grade", "setting": "Balb/c mice; IP BT2 3 mg/kg (Days 0 and 5)", "value": 0}, {"measurement": "Kidney (left and right): inflammation, renal pelvis, severity grade", "setting": "Balb/c mice; IP BT2 3 mg/kg (Days 0 and 5)", "value": 0}, {"measurement": "Liver: mineralisation, subcapsular, severity grade", "setting": "Balb/c mice; IP BT2 3 mg/kg (Days 0 and 5)", "value": 0}, {"measurement": "Spleen, severity grade", "setting": "Balb/c mice; IP BT2 3 mg/kg (Days 0 and 5)", "value": 0}, {"measurement": "Liver: inflammation, parenchymal, severity grade", "setting": "Balb/c mice; [3]", "value": "1 and 0"}, {"measurement": "Liver: inflammation, peritoneal, severity grade", "setting": "Balb/c mice; [3]", "value": "0 and 2 and 1"}, {"measurement": "Lung: osseous metaplasia, severity grade", "setting": "Balb/c mice; [3]", "value": "0 and 1"}, {"measurement": "Eye (left and right), severity grade", "setting": "Balb/c mice; IP BT2 30 mg/kg (Days 0 and 5)", "value": 0}, {"measurement": "Heart, severity grade", "setting": "Balb/c mice; IP BT2 30 mg/kg (Days 0 and 5)", "value": 0}, {"measurement": "Kidney (left and right): inflammation, interstitial, severity grade", "setting": "Balb/c mice; IP BT2 30 mg/kg (Days 0 and 5)", "value": 0}, {"measurement": "Lung: osseous metaplasia, severity grade", "setting": "Balb/c mice; IP BT2 30 mg/kg (Days 0 and 5)", "value": 0}, {"measurement": "Spleen, severity grade", "setting": "Balb/c mice; IP BT2 30 mg/kg (Days 0 and 5)", "value": 0}, {"measurement": "Kidney (left and right): inflammation, renal pelvis, severity grade", "setting": "Balb/c mice; [4]", "value": "0 and 4"}, {"measurement": "Liver: inflammation, parenchymal, severity grade", "setting": "Balb/c mice; [4]", "value": "1 and 2"}, {"measurement": "Liver: inflammation, peritoneal, severity grade", "setting": "Balb/c mice; [4]", "value": "1 and 2"}, {"measurement": "Liver: mineralisation, subcapsular, severity grade", "setting": "Balb/c mice; [4]", "value": "0 and 1"}, {"measurement": "Trypan Blue incorporation (% living cells)", "setting": "HMEC-1", "value": "without affecting Trypan Blue incorporation"}, {"measurement": "serum-inducible proliferation, total cell numbers (Countess)", "setting": "HMEC-1", "value": "inhibited serum-inducible proliferation"}]}
